According to patent US20090264415A2 (priority 2004, published 2009):
pIC50: −log10 of the molar value. Read-outs that look alike come from different tables or passages of the source.

System: peripheral blood mononuclear cells (PBMC) stimulated with allogeneic PBMC or EBV-transformed human B cells (RPMI1788)
Assay: Mixed lymphocyte reaction (MLR) assay
Assay type: cell-based
Experimental: Pyrido[3,2-d]pyrimidine derivatives were first dissolved (10 mM) in dimethyl-sulfoxide (hereinafter referred as DMSO) and further diluted in culture medium before use for the following in vitro experiments. […] Some pyrido[3,2-d]pyrimidine derivatives described herein were tested in the following mixed lymphocyte reaction (MLR) assay.
Peripheral blood mononuclear cells (hereinafter referred as PBMC) were isolated from heparinized peripheral blood by density gradient centrifugation over Lymphoprep (Nycomed, Maorstua, Norway). Allogeneic PBMC or Eppstein-Barr Virus-transformed human B cells [commercially available under the trade name RPM11788 (ATCC name CCL156)] which strongly express B7-1 and B7-2 antigens were used as stimulator cells after irradiation with 30 Gy. MLR was performed in triplicate wells. After 5 days incubation at 37° C., 1 μCi [^3H]-thymidine was added to each cup. After a further 16 hours incubation, cells were harvested and counted in a β-counter. Inhibition of proliferation by a compound described in some of the present examples was counted while using the formula: [formula] wherein cpm is the thymidine count per minute. The MLR assay is regarded by those skilled in the art as an in vitro analogue of the transplant rejection since it is based on the recognition of allogeneic major histocompatibility antigens on the stimulator leukocytes, by responding lymphocytes.

[1] = Homo sapiens, RPMI-1788, MLR assay of example 319, read-out: MLR IC50
[2] = Homo sapiens, RPMI-1788, 50% suppression of the MLR, [3H]-thymidine incorporation, read-out: MLR
[3] = 50% suppression of the MLR, [3H]-thymidine incorporation, read-out: MLR

## CC(C)(C)OC(=O)NC(Cc1ccc(Cl)cc1)C(=O)N1CCN(c2nc(N)nc3ccc(-c4ccc(F)cc4)nc23)CC1 (stereo in doubt) [Example 477, (S)-[2-{4-[2-amino-6-(4-fluorophenyl)-pyrido[3,2-d]pyrimidin-4-yl]-piperazin-1-yl}-1-(4-chlorobenzyl)-2-oxoethyl]-carbamic acid tert-butyl ester]
[1]
  pIC50: 5.31

## Nc1nc(N2CCN(C(=O)C(N)Cc3ccc(Cl)cc3)CC2)c2nc(-c3ccc(F)cc3)ccc2n1 (stereo in doubt) [Example 488, (S)-2-amino-4-{4-[3-(4-chlorophenyl)-2-aminopropionyl]piperazin-1-yl}-6-(4-fluorophenyl)-pyrido[3,2-d]pyrimidine]
[1]
  pIC50: 5.37

## Nc1nc(N2CCOCC2)c2nc(-c3ccc(Cl)c(Cl)c3)ccc2n1 [184/231, 2-amino-4-(morpholino)-6-(3,4-dichlorophenyl)-pyrido[3,2-d]pyrimidine]
[2]
  pIC50: 5.41

## COc1ccc(-c2ccc3nc(Cl)nc(N4CCN(C(=O)Nc5cccc(C)c5)CC4)c3n2)cc1OC [Example 14]
[3]
  pIC50: 7.18

## COc1ccc(-c2ccc3nc(OCCOc4ccccc4)nc(N4CCN(C(=O)Nc5cccc(C)c5)CC4)c3n2)cc1OC [Example 18]
[3]
  pIC50: 6.05

## COc1ccc(Cl)c(Nc2nc(N)nc3ccc(-c4ccc(OC)c(OC)c4)nc23)c1 [Example 30, 2-amino-4-(2-chloro-5-methoxy-anilino)-6-(3,4-dimethoxyphenyl)pyrido[3,2-d]pyrimidine]
[2]
  pIC50: 5.00

## COc1ccc(-c2ccc3nc(N)nc(N4CCN(C(=O)COc5ccccc5)CC4)c3n2)cc1OC [Example 60, 2-amino-4-[(N-phenoxy-acetyl)-piperazin-1-yl]-6-(3,4-dimethoxyphenyl)-pyrido[3,2-d]pyrimidine]
[3]
  pIC50: 7.28

## O=C(Nc1cccc(Cl)c1)N1CCN(c2ncnc3ccc(Cl)nc23)CC1 [Example 70, 4-[(N-3-chlorophenylcarbamoyl)-piperazin-1-yl]-6-chloro-pyrido[3,2-d]pyrimidine]
[3]
  pIC50: 5.47

## COc1ccc(-c2ccc3nc(N4CCOCC4)nc(N4CCN(C(=O)Nc5cccc(C)c5)CC4)c3n2)cc1OC [Example 88]
[3]
  pIC50: 6.40

## CCCCOc1nc(N2CCN(C(=O)Nc3cccc(C)c3)CC2)c2nc(-c3ccc(OC)c(OC)c3)ccc2n1 [Example 89, 2-butoxy-4-[(N-3-methyl-phenylcarbamoyl)-piperazin-1-yl]-6-(3,4-dimethoxyphenyl)-pyrido[3,2-d]pyrimidine]
[3]
  pIC50: 5.70

## COc1ccc(-c2ccc3nc(Nc4ccc(C)cc4)nc(N4CCN(C(=O)Nc5cccc(C)c5)CC4)c3n2)cc1OC [Example 91, 2-(p-tolylamino)-4-[(N-3-methylphenylcarbamoyl)-piperazin-1-yl]-6-(3,4-dimethoxy-phenyl)-pyrido[3,2-d]pyrimidine]
[3]
  pIC50: 6.10

## COc1ccc(-c2ccc3nc(Nc4ccc(F)c(Cl)c4)nc(N4CCN(C(=O)Nc5cccc(C)c5)CC4)c3n2)cc1OC [Example 92]
[3]
  pIC50: 5.92

## COc1cc(-c2ccc3nc(N)nc(N)c3n2)ccc1O [Example 93, 2,4-diamino-6-(4-hydroxy-3-methoxyphenyl)-pyrido[3,2-d]pyrimidine]
[2]
  pIC50: 5.29

## COc1cc(-c2ccc3nc(N)nc(N4CCOCC4)c3n2)ccc1OC1CCCC1 [Example 98, 2-amino-4-(N-morpholino)-6-(4-cyclopentyloxy-3-methoxyphenyl)-pyrido[3,2-d]pyrimidine]
[3]
  pIC50: 5.12

## COc1ccc(-c2ccc3ncnc(N4CCN(C(=O)Nc5ccc(F)cc5)CC4)c3n2)cc1OC [Example 111, 4-[(N-4-fluorophenylcarbamoyl)-piperazin-1-yl]-6-(3,4-dimethoxyphenyl)-pyrido[3,2-d]pyrimidine]
[3]
  pIC50: 7.52

## CC(=O)Nc1nc(-c2nc[nH]n2)c2nc(-c3ccc(Cl)c(Cl)c3)ccc2n1 [Example 145, 2-acetamido-4-(1,2,4-triazolyl)-6-(3,4-dichloro-phenyl)pyrido-[3,2-d]pyrimidine]
[2]
  pIC50: 5.28
